In brackets after ≈: the same amount, converted by molar mass. Activity calls are given as the source filed them. The calls are words filed in the database; no cut-off is given here.
Assays:
[1] = Solubility of compound in 10% Tween 80; format: physicochemical
[2] = molecular target: Serine/threonine-protein kinase PLK2 (Homo sapiens, UniProt Q9NYY3); test: Inhibition of PLK2 assessed as [33P]gamma-ATP incorporation into substrate after 60 mins by gamma counting
A2780 = test: Antiproliferative activity against human A2780 cells
[3] = Intrinsic clearance in rat hepatocytes at 1 uM; format: ADME, cell-based, Liver, Hepatocyte
[4] = Solubility of compound at pH 7; format: physicochemical; conditions: buffer
Caco-2 = test: Apparent permeability of the compound across human Caco2 cells; format: ADME, cell-based
[5] = Intrinsic clearance in human liver microsomes at 1 uM; format: ADME, Microsome
[6] = Apparent permeability of the compound by PAMPA assay; format: ADME
[7] = molecular target: Serine/threonine-protein kinase PLK3 (Homo sapiens, UniProt Q9H4B4); test: Inhibition of PLK3 assessed as [33P]gamma-ATP incorporation into substrate after 60 mins by gamma counting
[8] = molecular target: Serine/threonine-protein kinase PLK1 (Homo sapiens, UniProt P53350); test: Inhibition of PLK1 assessed as [33P]gamma-ATP incorporation into substrate after 60 mins by gamma counting
[9] = Cmax in overnight fasted CD1 nu/nu mouse at 10 mg/kg, po; format: ADME, organism-based; design: dose 10 mg/kg, route oral; conditions: in vivo
[10] = AUC (infinity) in overnight fasted CD1 nu/nu mouse at 10 mg/kg, po; format: ADME, organism-based; design: time infinity, dose 10 mg/kg, route oral; conditions: plasma
[11] = Half life in overnight fasted CD1 nu/nu mouse at 10 mg/kg, iv; format: ADME, organism-based; design: dose 10 mg/kg, route intravenous; conditions: in vivo
[12] = Oral bioavailability in overnight fasted CD1 nu/nu mouse at 10 mg/kg; format: ADME, organism-based; conditions: in vivo
[13] = AUC (infinity) in overnight fasted CD1 nu/nu mouse at 10 mg/kg, iv; format: ADME, organism-based; design: time infinity, dose 10 mg/kg, route intravenous; conditions: plasma
[14] = Half life in overnight fasted CD1 nu/nu mouse at 10 mg/kg, po; format: ADME, organism-based; design: dose 10 mg/kg, route oral; conditions: in vivo
[15] = Volume of distribution at steady state in overnight fasted CD1 nu/nu mouse at 10 mg/kg, iv; format: ADME, organism-based; design: dose 10 mg/kg, route intravenous; conditions: in vivo, read-out: Vdss
[16] = Clearance in overnight fasted CD1 nu/nu mouse at 10 mg/kg, iv; format: ADME, organism-based; design: dose 10 mg/kg, route intravenous; conditions: in vivo
Mus musculus [17] = test: Toxicity in CD1 nu/nu mouse xenografted with human HCT116 cells assessed as reversible body weight loss at 90 mg/kg, po once daily administered on days 1 to 2 in weekly scheduling for 4 cycles measured on day 15; conditions: in vivo
HCT-116 = test: Antitumor activity against human HCT116 cells xenografted in CD1 nu/nu mouse assessed as tumor growth inhibition at 90 mg/kg, po once daily administered on days 1 to 2 daily in weekly scheduling for 4 cycles measured on day 18; conditions: HCT-116, po, 432 h, read-out: TGI
Mus musculus [18] = test: Toxicity in CD1 nu/nu mouse xenografted with human HCT116 cells assessed as reversible body weight loss at 30 mg/kg, iv BID administered on days 1 to 2 in weekly scheduling for 3 cycles measured on day 30; format: organism-based, HCT-116; design: dose 30 mg/kg, route intravenous; conditions: in vivo
CAL-51 = test: Cell cycle arrest in human CAL51 cells at 0.1 to 1 uM after 24 hrs by flow cytometry; format: functional, cell-based

Sequence of Serine/threonine-protein kinase PLK1 (P53350 whole entry): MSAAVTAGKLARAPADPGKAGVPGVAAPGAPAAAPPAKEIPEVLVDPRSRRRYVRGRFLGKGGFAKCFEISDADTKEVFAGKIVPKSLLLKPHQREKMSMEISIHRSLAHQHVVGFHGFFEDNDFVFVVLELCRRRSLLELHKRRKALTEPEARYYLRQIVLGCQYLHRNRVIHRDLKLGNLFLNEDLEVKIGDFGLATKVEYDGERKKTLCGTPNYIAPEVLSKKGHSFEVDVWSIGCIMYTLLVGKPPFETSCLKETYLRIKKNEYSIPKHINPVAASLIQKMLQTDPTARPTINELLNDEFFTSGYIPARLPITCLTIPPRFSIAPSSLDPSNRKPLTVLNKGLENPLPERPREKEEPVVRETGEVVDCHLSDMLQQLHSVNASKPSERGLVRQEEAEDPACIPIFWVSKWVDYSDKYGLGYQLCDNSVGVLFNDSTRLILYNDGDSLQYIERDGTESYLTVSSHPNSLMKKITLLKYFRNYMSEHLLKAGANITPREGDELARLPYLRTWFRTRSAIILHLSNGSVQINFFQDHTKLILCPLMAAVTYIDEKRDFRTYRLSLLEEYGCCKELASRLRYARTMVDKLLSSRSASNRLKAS
Sequence of Serine/threonine-protein kinase PLK3 (Q9H4B4 whole entry): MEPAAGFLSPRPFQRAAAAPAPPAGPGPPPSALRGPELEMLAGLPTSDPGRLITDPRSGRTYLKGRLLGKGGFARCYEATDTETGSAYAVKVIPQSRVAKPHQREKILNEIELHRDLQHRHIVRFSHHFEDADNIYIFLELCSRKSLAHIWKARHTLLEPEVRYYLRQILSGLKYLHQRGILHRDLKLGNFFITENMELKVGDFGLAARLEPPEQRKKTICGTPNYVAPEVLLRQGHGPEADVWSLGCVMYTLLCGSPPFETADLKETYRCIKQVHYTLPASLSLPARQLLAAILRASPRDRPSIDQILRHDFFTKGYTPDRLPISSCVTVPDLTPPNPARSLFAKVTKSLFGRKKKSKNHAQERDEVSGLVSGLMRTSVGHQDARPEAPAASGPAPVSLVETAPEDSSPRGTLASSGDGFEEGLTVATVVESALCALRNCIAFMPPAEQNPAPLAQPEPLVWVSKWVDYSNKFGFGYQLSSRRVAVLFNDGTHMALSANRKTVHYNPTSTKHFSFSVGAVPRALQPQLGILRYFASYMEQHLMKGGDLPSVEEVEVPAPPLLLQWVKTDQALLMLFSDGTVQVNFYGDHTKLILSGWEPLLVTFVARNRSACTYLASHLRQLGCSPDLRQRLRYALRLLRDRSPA
Sequence of Serine/threonine-protein kinase PLK2 (Q9NYY3 whole entry): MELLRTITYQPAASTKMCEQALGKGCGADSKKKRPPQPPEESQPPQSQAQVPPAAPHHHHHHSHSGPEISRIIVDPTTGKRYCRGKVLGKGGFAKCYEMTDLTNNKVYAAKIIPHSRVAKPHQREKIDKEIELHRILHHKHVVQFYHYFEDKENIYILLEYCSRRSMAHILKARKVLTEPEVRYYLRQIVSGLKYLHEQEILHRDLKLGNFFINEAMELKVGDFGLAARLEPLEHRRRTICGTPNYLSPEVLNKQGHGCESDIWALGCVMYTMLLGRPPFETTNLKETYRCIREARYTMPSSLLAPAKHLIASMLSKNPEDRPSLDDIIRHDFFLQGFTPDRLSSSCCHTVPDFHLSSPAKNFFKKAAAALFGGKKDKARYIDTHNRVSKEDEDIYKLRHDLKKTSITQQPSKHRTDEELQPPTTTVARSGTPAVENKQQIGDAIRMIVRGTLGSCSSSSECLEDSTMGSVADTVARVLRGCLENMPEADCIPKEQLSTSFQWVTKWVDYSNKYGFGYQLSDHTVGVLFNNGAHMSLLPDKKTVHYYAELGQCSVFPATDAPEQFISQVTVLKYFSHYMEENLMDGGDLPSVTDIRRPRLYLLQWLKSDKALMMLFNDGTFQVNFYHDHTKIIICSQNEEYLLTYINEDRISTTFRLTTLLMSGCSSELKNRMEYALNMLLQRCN

| IC50 [2] [µM] | IC50 (A2780) [µM] | solubility [4] [µM] | IC50 [7] [µM] | IC50 [8] [µM] | SMILES | also measured |
| --- | --- | --- | --- | --- | --- | --- |
| 2.25 | 0.034 | 148 (≈ 73.9 µg/mL) | – | – | CN1CC=C(c2ccc(OC(F)(F)F)c(Nc3ncc4c(n3)-c3c(c(C(N)=O)nn3C)CC4)c2)CC1 | solubility [1]: 3700 µg/mL (≈ 7.41 mM); CLint scaled at 1 µM [3]: 638 mL/min/kg; Papp (Caco-2): permeable; CLint scaled at 1 µM [5]: 24.5 mL/min/kg; Papp [6]: 46.4 ×10⁻⁶ cm/s |
| 1.49 | 1.61 | 166 (≈ 88.4 µg/mL) | – | – | CN1CCN(c2ccc(OC(F)(F)F)c(Nc3ncc4c(n3)-c3c(c(C(N)=O)nn3C)CC4)c2)[C@H](CO)C1 | – |
| > 10 | 1.31 | 202 (≈ 107 µg/mL) | > 10 | 0.033 | CN1CCN(c2ccc(OC(F)(F)F)c(Nc3ncc4c(n3)-c3c(c(C(N)=O)nn3CCN)CC4)c2)CC1 | Papp [6]: 5 ×10⁻⁶ cm/s |
| > 10 | – | 35 (≈ 21.6 µg/mL) | – | – | CN1CCN(c2ccc(OC(F)(F)F)c(Nc3ncc4c(n3)-c3c(c(C(N)=O)nn3CCOC3CCCCO3)CC4)c2)CC1 (stereo not given) | – |
| > 10 | 0.598 | 121 (≈ 64.4 µg/mL) | – | – | CN1CCN(c2ccc(OC(F)(F)F)c(Nc3ncc4c(n3)-c3c(c(C(N)=O)nn3C)CC4)c2)[C@@H](CO)C1 | – |
| 1.36 | 1.64 | 186 (≈ 104 µg/mL) | – | – | CN1CCN(CCCNc2ccc(OC(F)(F)F)c(Nc3ncc4c(n3)-c3c(c(C(N)=O)nn3C)CC4)c2)CC1 | – |
| > 10 | – | 203 (≈ 102 µg/mL) | > 10 | 0.006 | CN1CCC(c2ccc(OC(F)(F)F)c(Nc3ncc4c(n3)-c3c(c(C(N)=O)nn3C)CC4)c2)CC1 | solubility [1]: 3800 µg/mL (≈ 7.58 mM); CLint scaled at 1 µM [3]: 603 mL/min/kg; Papp (Caco-2): permeable; CLint scaled at 1 µM [5]: 15.9 mL/min/kg; Papp [6]: 36.8 ×10⁻⁶ cm/s |
| > 10 | 2.5 | 200 (≈ 115 µg/mL) | > 10 | 0.279 | CN(C)CCCn1nc(C(N)=O)c2c1-c1nc(Nc3cc(N4CCN(C)CC4)ccc3OC(F)(F)F)ncc1CC2 | – |
| > 10 | 1.14 | 162 (≈ 86.3 µg/mL) | > 10 | 0.06 | CCN(CC)CCN(C)c1ccc(OC(F)(F)F)c(Nc2ncc3c(n2)-c2c(c(C(N)=O)nn2C)CC3)c1 | – |
| 1.45 | 0.348 | 79 (≈ 40.8 µg/mL) | – | – | Cn1nc(C(N)=O)c2c1-c1nc(Nc3cc(NC(=O)[C@@H]4CCCN4)ccc3OC(F)(F)F)ncc1CC2 | – |
| > 10 | 0.846 | 186 (≈ 101 µg/mL) | > 10 | 0.052 | CN1CCN(c2ccc(OC(F)(F)F)c(Nc3ncc4c(n3)-c3c(c(C(N)=O)nn3CCCN)CC4)c2)CC1 | Papp [6]: 4 ×10⁻⁶ cm/s |
| 1.5 | 1.35 | 33 (≈ 18 µg/mL) | – | – | CN1CCC(C(=O)Nc2ccc(OC(F)(F)F)c(Nc3ncc4c(n3)-c3c(c(C(N)=O)nn3C)CC4)c2)CC1 | – |
| – | – | – | – | – | CN1CCN(c2ccc(OC(F)(F)F)c(Nc3ncc4c(n3)-c3c(c(C(N)=O)nn3CCO)CC4)c2)CC1.Cl | Cmax [9]: 640 nM; AUC(0-inf) [10]: 2.04 µM·h; half-life [11]: 0.89 h; bioavailability [12]: 24%; AUC(0-inf) [13]: 8.57 µM·h; half-life [14]: 1.6 h; Vd [15]: 1.71 L/kg; clearance [16]: 39.3 mL/min/kg |
| – | – | – | – | – | CN1CCN(c2ccc(OC(F)(F)F)c(Nc3ncc4c(n3)-c3c(c(C(N)=O)nn3C)CC4)c2)CC1 | Activity (Mus musculus [17]): 14%; inhibition in vivo at 90 mg/kg (HCT-116): 59%; CLint scaled at 1 µM [3]: 600 mL/min/kg; Papp (Caco-2): permeable; Activity (Mus musculus [18]): 14% |
| – | – | – | – | – | CN1CCN(c2ccc(OC(F)(F)F)c(Nc3ncc4c(n3)-c3c(c(C(N)=O)nn3CCO)CC4)c2)CC1 | Activity (CAL-51): Active |

Reference: ChEMBL document CHEMBL1773059, “NMS-P937, a 4,5-dihydro-1H-pyrazolo[4,3-h]quinazoline derivative as potent and selective Polo-like kinase 1 inhibitor” (Bioorg Med Chem Lett, 2011)
